Numbers after ± are expanded uncertainties.
Conditions: Liquid

CCCCCCCCCCCCCC(=O)OC [methyl tetradecanoate]
Conditions	vapor or sublimation pressure [kPa]
302.71 K	0.0001132 ± 2e-06
305.3 K	0.0001501 ± 2.2e-06
306.14 K	0.0001656 ± 2.3e-06
307.76 K	0.0001949 ± 2.6e-06
308.58 K	0.0002142 ± 2.9e-06
310.23 K	0.0002542 ± 3.4e-06
311.21 K	0.0002813 ± 3.7e-06
312.71 K	0.0003264 ± 4.3e-06
313.7 K	0.0003625 ± 4.7e-06
315.17 K	0.0004199 ± 5.4e-06
316.16 K	0.0004655 ± 6e-06
317.65 K	0.0005357 ± 6.8e-06
318.63 K	0.0005914 ± 7.6e-06
320.12 K	0.0006862 ± 8.7e-06
321.26 K	0.0007623 ± 9.7e-06
322.58 K	0.0008688 ± 1.1e-05
323.72 K	0.0009621 ± 1.2e-05
325.2 K	0.001105 ± 1.4e-05
326.19 K	0.001216 ± 1.5e-05
327.67 K	0.001391 ± 1.7e-05
328.66 K	0.001519 ± 1.9e-05
330.13 K	0.001743 ± 2.2e-05
331.13 K	0.001907 ± 2.4e-05
332.6 K	0.002171 ± 2.7e-05
333.6 K	0.002378 ± 3e-05
335.34 K	0.002751 ± 3.4e-05
336.07 K	0.002936 ± 3.7e-05
337.83 K	0.00341 ± 4.2e-05
338.55 K	0.003626 ± 4.5e-05
340.31 K	0.004207 ± 5.2e-05
341.01 K	0.00447 ± 5.6e-05
342.8 K	0.005171 ± 6.4e-05
343.48 K	0.005466 ± 6.8e-05
345.28 K	0.006333 ± 7.8e-05
345.96 K	0.006695 ± 8.3e-05
347.76 K	0.007722 ± 9.5e-05
348.43 K	0.008134 ± 0.0001
350.25 K	0.009383 ± 0.00012
350.91 K	0.009867 ± 0.00012
352.73 K	0.01136 ± 0.00014
355.48 K	0.01397 ± 0.00021
357.96 K	0.0168 ± 0.00023
360.44 K	0.02019 ± 0.00027
362.92 K	0.02417 ± 0.00032
365.4 K	0.02884 ± 0.00038
367.85 K	0.0341 ± 0.00044
370.34 K	0.0405 ± 0.00052
372.83 K	0.04791 ± 0.00061
375.44 K	0.05668 ± 0.00072
377.92 K	0.06667 ± 0.00084
380.41 K	0.0782 ± 0.00098
382.89 K	0.09144 ± 0.0011
385.37 K	0.1068 ± 0.0013
387.86 K	0.1243 ± 0.0016
390.36 K	0.1443 ± 0.0018
393.01 K	0.1685 ± 0.0021
395.5 K	0.1947 ± 0.0024
397.98 K	0.2245 ± 0.0028
400.45 K	0.2582 ± 0.0032
402.96 K	0.297 ± 0.0037
405.45 K	0.3402 ± 0.0042
407.93 K	0.3881 ± 0.0048
410.41 K	0.4428 ± 0.0055
412.89 K	0.5045 ± 0.0062
415.45 K	0.5764 ± 0.0071
417.93 K	0.6527 ± 0.008
420.4 K	0.7365 ± 0.0091
422.88 K	0.8323 ± 0.01

Transpiration method
Conditions	vapor or sublimation pressure [kPa]
303.05 K	0.000126 ± 2.6e-05
304.65 K	0.000152 ± 3.1e-05
306.05 K	0.000172 ± 3.5e-05
309.15 K	0.000236 ± 4.8e-05
311.15 K	0.00032 ± 6.5e-05
313.15 K	0.00039 ± 7.9e-05
316.25 K	0.000485 ± 9.9e-05
319.25 K	0.000631 ± 0.00013
322.05 K	0.000891 ± 0.00018
325.05 K	0.00116 ± 0.00024
328.25 K	0.00151 ± 0.00031
331.05 K	0.0019 ± 0.00039
333.05 K	0.00252 ± 0.00051
333.15 K	0.00233 ± 0.00048
334.95 K	0.00275 ± 0.00056
338.05 K	0.00359 ± 0.00073
340.05 K	0.00416 ± 0.00085
343.05 K	0.00536 ± 0.0011
344.95 K	0.00629 ± 0.0013
348.05 K	0.00758 ± 0.0015
350.15 K	0.00963 ± 0.002
353.05 K	0.0111 ± 0.0023
355.15 K	0.0133 ± 0.0027
358.05 K	0.0168 ± 0.0034
360.05 K	0.02 ± 0.0041
363.05 K	0.0242 ± 0.0049

— the NIST ThermoML archive (doi:10.1016/j.jct.2019.01.007)
